Test results reported in ChEMBL document CHEMBL2346520, “Design, synthesis and biological evaluation of novel imidazo[4,5-c]pyridinecarboxamide derivatives as PARP-1 inhibitors” (Bioorg Med Chem Lett, 2013).

target: T1, Poly [ADP-ribose] polymerase 1 (Homo sapiens, UniProt P09874); conditions: 100 uM
T1 sequence (P09874 whole entry): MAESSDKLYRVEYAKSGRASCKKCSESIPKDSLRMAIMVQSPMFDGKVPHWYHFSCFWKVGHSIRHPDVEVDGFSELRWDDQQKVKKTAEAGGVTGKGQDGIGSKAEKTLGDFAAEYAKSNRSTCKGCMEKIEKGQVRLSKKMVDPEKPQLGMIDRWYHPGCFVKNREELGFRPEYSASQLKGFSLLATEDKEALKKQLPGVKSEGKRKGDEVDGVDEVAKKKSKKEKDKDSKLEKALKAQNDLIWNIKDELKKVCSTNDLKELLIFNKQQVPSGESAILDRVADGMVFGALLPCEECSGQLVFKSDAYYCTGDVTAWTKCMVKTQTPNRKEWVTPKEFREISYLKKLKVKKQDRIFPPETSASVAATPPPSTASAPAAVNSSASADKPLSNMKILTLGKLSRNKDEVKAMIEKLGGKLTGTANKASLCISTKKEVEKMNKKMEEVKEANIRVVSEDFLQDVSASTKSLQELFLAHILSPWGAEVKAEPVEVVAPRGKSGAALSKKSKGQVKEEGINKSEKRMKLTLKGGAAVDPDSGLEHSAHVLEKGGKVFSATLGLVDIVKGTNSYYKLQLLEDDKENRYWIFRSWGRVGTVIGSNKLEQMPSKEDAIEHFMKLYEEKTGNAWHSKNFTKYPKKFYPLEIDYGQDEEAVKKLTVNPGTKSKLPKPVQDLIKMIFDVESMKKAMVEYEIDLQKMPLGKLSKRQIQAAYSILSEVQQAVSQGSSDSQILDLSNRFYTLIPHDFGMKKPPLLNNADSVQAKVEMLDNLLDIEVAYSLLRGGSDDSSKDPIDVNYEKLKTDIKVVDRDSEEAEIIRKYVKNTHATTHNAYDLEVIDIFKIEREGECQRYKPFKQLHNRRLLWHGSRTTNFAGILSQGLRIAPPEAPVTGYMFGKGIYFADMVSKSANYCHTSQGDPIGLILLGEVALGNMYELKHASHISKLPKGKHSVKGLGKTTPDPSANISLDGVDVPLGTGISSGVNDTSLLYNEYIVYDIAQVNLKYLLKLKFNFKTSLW
Description: Inhibition of PARP1 (unknown origin) at 100 uM

inhibition | SMILES
100% | NC(=O)c1cccc(N)c1

target: T1, Poly [ADP-ribose] polymerase 1; assay: Inhibition of PARP1 (unknown origin); conditions: not given

SMILES | IC50
CN1CCC(c2nc3c(C(N)=O)cncc3[nH]2)CC1 | 1450 nM
NC(=O)c1cncc2[nH]c(C3CCNCC3)nc12 | 825 nM

Other lines, results leading:

IC50 | SMILES
938 nM | CCCN1CCCC(c2nc3c(C(N)=O)cncc3[nH]2)C1 (configuration not stated)
651 nM | CC(C)N1CCCC(c2nc3c(C(N)=O)cncc3[nH]2)C1 (configuration not stated)
636 nM | NC(=O)c1cncc2[nH]c(C3CCCNC3)nc12 (configuration not stated)
528 nM | CCCN1CCC(c2nc3c(C(N)=O)cncc3[nH]2)CC1
